{
  "source": "patent US20240226101A1",
  "about": "“PYRIMIDINYLAMINOBENZENES FOR LUNG CANCER TREATMENT” (Suzhou Puhe BioPharma Co., LTD., priority 2021, published 2024)",
  "key": {"EGFR L861Q": {"molecular_target": "EGFR L861Q (Homo sapiens, UniProt P00533, L861Q)", "sequence (P00533 25-1210 L861Q)": "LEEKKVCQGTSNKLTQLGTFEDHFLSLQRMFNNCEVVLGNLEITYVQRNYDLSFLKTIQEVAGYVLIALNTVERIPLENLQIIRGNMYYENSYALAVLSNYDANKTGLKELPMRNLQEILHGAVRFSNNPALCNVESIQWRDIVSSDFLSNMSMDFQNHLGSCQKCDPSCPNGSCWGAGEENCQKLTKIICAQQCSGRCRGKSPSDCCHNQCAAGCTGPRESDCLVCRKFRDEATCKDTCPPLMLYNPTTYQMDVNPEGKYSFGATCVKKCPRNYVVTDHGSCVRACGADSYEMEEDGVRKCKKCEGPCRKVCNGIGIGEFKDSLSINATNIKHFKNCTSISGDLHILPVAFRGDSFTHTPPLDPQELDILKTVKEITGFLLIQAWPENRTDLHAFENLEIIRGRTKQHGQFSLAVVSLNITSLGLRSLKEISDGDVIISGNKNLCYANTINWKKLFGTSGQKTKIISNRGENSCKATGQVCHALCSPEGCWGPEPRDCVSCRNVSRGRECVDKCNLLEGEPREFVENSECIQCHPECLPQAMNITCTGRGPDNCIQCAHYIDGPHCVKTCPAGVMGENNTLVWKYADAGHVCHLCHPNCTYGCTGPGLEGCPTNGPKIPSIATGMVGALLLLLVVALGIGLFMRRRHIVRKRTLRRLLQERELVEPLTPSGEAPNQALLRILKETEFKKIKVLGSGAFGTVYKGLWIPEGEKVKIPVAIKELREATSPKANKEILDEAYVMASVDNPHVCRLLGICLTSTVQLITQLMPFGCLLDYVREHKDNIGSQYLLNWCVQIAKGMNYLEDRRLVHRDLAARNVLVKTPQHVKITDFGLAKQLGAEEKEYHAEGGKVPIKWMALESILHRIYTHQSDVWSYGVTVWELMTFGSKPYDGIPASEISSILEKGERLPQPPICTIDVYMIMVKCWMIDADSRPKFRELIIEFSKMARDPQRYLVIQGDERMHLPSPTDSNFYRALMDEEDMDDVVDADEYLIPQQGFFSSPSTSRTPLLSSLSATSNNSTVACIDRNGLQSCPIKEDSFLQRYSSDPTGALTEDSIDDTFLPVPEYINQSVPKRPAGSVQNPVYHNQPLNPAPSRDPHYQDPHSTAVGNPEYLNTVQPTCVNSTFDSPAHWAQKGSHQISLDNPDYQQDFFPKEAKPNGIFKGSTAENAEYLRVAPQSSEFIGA", "assay": "HTFR KINEASE-TK kit (Cisbio) inhibition of EGFR mutant L861Q", "format": "biochemical", "method": "(§1) Compound A13 was tested against EGFR mutants: (i) three exon 20 insertions: […], D770_N771insNPG, and A763_Y764insFQEA; and (ii) one point mutation: L861Q; using an HTFR KINEASE-TK kit (Cisbio) according to the manufacturer's protocol."}, "EGFR A763_Y764insFQEA": {"molecular_target": "EGFR A763_Y764insFQEA (Homo sapiens, UniProt P00533, INS763FQEA)", "assay": "HTFR KINEASE-TK kit (Cisbio) inhibition of EGFR mutant A763_Y764insFQEA", "format": "biochemical", "method": "as §1"}, "EGFR V769_D770insGE": {"molecular_target": "EGFR V769_D770insGE (Homo sapiens, UniProt P00533, INS769GE)", "sequence (P00533 with tags, fused parts or gaps INS769GE)": "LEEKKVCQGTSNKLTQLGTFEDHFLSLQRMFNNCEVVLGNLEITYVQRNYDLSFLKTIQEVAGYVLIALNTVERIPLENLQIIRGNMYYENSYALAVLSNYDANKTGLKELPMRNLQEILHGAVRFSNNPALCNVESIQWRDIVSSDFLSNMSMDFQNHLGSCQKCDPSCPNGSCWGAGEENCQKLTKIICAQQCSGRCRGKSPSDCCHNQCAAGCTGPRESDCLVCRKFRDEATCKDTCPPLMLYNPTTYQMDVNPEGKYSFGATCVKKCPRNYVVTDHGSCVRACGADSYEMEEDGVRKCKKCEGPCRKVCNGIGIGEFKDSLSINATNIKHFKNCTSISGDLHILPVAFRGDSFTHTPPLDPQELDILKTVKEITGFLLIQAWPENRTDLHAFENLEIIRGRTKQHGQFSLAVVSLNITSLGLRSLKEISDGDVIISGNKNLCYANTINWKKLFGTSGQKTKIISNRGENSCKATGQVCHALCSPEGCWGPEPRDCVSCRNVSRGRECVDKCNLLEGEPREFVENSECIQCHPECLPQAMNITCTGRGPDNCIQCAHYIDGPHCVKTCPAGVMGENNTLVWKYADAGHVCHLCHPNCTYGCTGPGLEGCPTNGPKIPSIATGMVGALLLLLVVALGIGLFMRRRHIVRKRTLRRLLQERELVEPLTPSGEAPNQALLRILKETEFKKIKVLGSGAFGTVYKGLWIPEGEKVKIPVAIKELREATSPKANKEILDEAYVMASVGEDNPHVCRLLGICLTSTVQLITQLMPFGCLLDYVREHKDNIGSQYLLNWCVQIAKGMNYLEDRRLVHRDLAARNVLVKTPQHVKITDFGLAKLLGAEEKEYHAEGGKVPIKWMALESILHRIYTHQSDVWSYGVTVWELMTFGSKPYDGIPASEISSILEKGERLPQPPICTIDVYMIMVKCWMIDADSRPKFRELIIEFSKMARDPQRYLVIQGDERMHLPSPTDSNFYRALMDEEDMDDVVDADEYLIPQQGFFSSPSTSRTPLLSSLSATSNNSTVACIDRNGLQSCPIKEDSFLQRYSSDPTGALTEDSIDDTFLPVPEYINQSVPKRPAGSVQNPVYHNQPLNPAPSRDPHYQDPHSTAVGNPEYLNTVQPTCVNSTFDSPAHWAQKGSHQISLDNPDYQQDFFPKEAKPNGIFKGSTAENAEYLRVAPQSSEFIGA", "assay": "HTFR KINEASE-TK kit (Cisbio) inhibition of EGFR mutant V769_D770insGE", "format": "biochemical", "method": "as §1"}, "EGFR D770_N771insNPG": {"molecular_target": "EGFR D770_N771insNPG (Homo sapiens, UniProt P00533, INS770NPG)", "assay": "HTFR KINEASE-TK kit (Cisbio) inhibition of EGFR mutant D770_N771insNPG", "format": "biochemical", "method": "as §1"}, "[1]": {"molecular_target": "T1, EGFR G719S in Ba/F3 cell lines (Homo sapiens, UniProt P00533, G719S)", "T1 construct": "expressed in transfected cells; host or cells: Ba/F3", "T1 sequence (P00533 25-1210 G719S)": "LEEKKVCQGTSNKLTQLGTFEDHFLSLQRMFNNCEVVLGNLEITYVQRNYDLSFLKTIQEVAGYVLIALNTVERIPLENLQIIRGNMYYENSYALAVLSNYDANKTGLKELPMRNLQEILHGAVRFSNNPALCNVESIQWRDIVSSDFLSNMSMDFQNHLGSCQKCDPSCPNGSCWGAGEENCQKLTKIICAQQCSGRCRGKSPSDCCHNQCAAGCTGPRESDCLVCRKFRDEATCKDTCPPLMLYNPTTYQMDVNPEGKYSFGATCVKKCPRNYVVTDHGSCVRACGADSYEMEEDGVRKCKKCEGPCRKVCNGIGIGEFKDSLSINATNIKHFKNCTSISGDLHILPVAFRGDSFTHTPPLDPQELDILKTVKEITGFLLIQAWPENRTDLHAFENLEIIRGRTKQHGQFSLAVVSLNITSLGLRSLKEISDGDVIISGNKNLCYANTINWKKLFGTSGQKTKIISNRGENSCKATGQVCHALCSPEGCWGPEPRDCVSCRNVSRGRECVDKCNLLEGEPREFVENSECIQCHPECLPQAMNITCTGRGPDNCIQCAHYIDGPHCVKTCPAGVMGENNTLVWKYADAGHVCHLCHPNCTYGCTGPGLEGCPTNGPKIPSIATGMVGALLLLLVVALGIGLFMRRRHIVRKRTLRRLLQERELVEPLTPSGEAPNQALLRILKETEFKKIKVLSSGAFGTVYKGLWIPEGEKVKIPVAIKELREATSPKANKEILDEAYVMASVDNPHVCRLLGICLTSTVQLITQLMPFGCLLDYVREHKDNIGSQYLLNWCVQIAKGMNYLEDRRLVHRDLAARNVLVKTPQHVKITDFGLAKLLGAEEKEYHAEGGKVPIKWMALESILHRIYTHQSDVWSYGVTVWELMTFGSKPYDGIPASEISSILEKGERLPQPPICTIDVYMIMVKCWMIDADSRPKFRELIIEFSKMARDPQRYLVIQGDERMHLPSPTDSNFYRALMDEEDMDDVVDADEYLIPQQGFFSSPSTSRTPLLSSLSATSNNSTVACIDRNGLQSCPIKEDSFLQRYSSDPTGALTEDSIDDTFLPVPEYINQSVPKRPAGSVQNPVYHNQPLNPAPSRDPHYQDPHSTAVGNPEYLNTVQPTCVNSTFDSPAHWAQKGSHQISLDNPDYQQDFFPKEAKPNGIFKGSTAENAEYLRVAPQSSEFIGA", "assay": "[…]-GLO cell viability assay, Ba/F3 cells with EGFR G719S", "format": "cell-based"}, "[2]": {"molecular_target": "T2, EGFR L861Q in Ba/F3 cell lines (Homo sapiens, UniProt P00533, L861Q)", "T2 construct": "expressed in transfected cells; host or cells: Ba/F3", "T2 sequence (P00533 25-1210 L861Q)": "as the sequence (P00533 25-1210 L861Q) above", "assay": "[…]-GLO cell viability assay, Ba/F3 cells with EGFR L861Q", "format": "cell-based"}, "[3]": {"molecular_target": "T3, EGFR A763_Y764insFQEA in Ba/F3 cell lines (Homo sapiens, UniProt P00533, INS763FQEA)", "T3 construct": "expressed in transfected cells; host or cells: Ba/F3", "assay": "[…]-GLO cell viability assay, Ba/F3 cells with EGFR A763_Y764insFQEA", "format": "cell-based"}, "[4]": {"molecular_target": "T4, EGFR V769_D770insASV in Ba/F3 cell lines (Homo sapiens, UniProt P00533, INS769ASV)", "T4 construct": "expressed in transfected cells; host or cells: Ba/F3", "assay": "[…]-GLO cell viability assay, Ba/F3 cells with EGFR V769_D770insASV", "format": "cell-based"}, "[5]": {"molecular_target": "T5, EGFR D770_N771insSVD in Ba/F3 cell lines (Homo sapiens, UniProt P00533, INS770SVD)", "T5 construct": "expressed in transfected cells; host or cells: Ba/F3", "assay": "[…]-GLO cell viability assay, Ba/F3 cells with EGFR D770_N771insSVD", "format": "cell-based"}, "[6]": {"molecular_target": "T6, EGFR H773_V774insNPH in Ba/F3 cell lines (Homo sapiens, UniProt P00533, INS773NPH)", "T6 construct": "expressed in transfected cells; host or cells: Ba/F3", "assay": "[…]-GLO cell viability assay, Ba/F3 cells with EGFR H773_V774insNPH", "format": "cell-based"}, "[7]": {"tested_on": "LU0387 lung cancer PDX model", "assay": "Antitumor activity in subcutaneous LU0387 lung cancer PDX xenograft mouse model", "format": "in vivo", "settings": "for TV (mm^3) on Day 0: Day 0 (randomization, baseline); for TV (mm^3) on Day 0 / RTV (relative tumor volume) / TV (mm^3) on Day 21: benzoate salt", "method": "Compound A13 as a single agent was evaluated for lung cancer treatment in a subcutaneous LU0387 lung cancer PDX model using female Balb/c nude mice. Tumor fragments from stock mice were harvested for inoculation into mice. Each mouse was inoculated subcutaneously in the right rear flank with a PDX model LU0387 tumor fragment (2-3 mm in diameter) for tumor development.\nThe randomization started when the mean tumor size reached approximately 517.37 mm^3. Twenty-four mice were randomly allocated to 8 study groups, with 3 mice per group. The date of randomization was designated as Day 0.\nAfter tumor inoculation, the mice were checked daily for morbidity and mortality. The mice were checked for any effects of tumor growth and treatments on behavior such as mobility, food and water consumption, body weight gain/loss, eye/hair matting, and any abnormalities. Mortality and observed clinical signs were recorded for each individual mouse in detail.\nTumor volumes (TV) were measured twice per week after randomization using a caliper and the volume was calculated using the formula: V=(L×W×W)/2, where V is tumor volume, L is tumor length (the longest tumor dimension), and W is tumor width (the longest tumor dimension perpendicular to L).\nCompound A13 was administered orally as a benzoate salt in a citrate/phosphate buffer at pH 4.0 at 20, 40, and 80 mg/kg once daily for 21 days. The results are summarized in Table 3, where RTV represents relative tumor volume."}, "[8]": {"assay": "Pharmacokinetics in the xenograft mouse model, single oral dose", "format": "in vivo, Balb/c Mice", "settings": "80 mg/kg single oral dose", "method": "Using the same xenograft mouse model, the pharmacokinetic (PK) parameters of compound A13 were determined at 80 mg/kg with a single oral dose. For each mouse, blood samples were collected at 0, 1, 2, 4, 8, 16, and 24 h after dosing."}, "[9]": {"settings": "20 mg/kg orally once daily for 21 days"}, "[10]": {"settings": "40 mg/kg orally once daily for 21 days"}},
  "note": "Where “and” joins values, the source holds several entries; their conditions need not be identical. Identical values can stand only once.",
  "data": [
    {"smiles": "C=CC(=O)Nc1cc(Nc2nccc(-c3cnc4c(C)cccn34)n2)c(OC)cc1N(C)CCN(C)C", "note": "[A13, N-(2-((2-(dimethylamino)ethyl)(methyl)amino)-4-methoxy-5-((4-(8-methylimidazo[1,2-a]-pyridin-3-yl)pyrimidin-2-yl)amino)phenyl)acrylamide]", "values": [
      {"measurement": "IC50", "setting": "EGFR L861Q", "value": 0.36, "unit": "nM"},
      {"measurement": "IC50", "setting": "EGFR A763_Y764insFQEA", "value": 0.73, "unit": "nM"},
      {"measurement": "IC50", "setting": "EGFR V769_D770insGE", "value": 0.62, "unit": "nM"},
      {"measurement": "IC50", "setting": "EGFR D770_N771insNPG", "value": 0.42, "unit": "nM"},
      {"measurement": "IC50", "setting": "[1]", "value": 2, "unit": "nM"},
      {"measurement": "IC50", "setting": "[2]", "value": 5, "unit": "nM"},
      {"measurement": "IC50", "setting": "[3]", "value": 4, "unit": "nM"},
      {"measurement": "IC50", "setting": "[4]", "value": 73, "unit": "nM"},
      {"measurement": "IC50", "setting": "[5]", "value": 29, "unit": "nM"},
      {"measurement": "IC50", "setting": "[6]", "value": 62, "unit": "nM"},
      {"measurement": "TV (mm^3) on Day 0", "setting": "[7]; 20 mg/kg group", "value": "86 ± 6", "unit": "mm^3"},
      {"measurement": "RTV (relative tumor volume)", "setting": "[7]; [9]", "value": "517 ± 61"},
      {"measurement": "TV (mm^3) on Day 21", "setting": "[7]; [9]", "value": "602 ± 67", "unit": "mm^3"},
      {"measurement": "TV (mm^3) on Day 0", "setting": "[7]; 40 mg/kg group", "value": "89 ± 6", "unit": "mm^3"},
      {"measurement": "RTV (relative tumor volume)", "setting": "[7]; [10]", "value": 281},
      {"measurement": "TV (mm^3) on Day 21", "setting": "[7]; [10]", "value": "370 ± 31", "unit": "mm^3"},
      {"measurement": "TGI (tumor growth inhibition)", "setting": "[7]; 40 mg/kg orally once daily for 21 days, vs. vehicle control (P=0.016)", "value": 61, "unit": "%"},
      {"measurement": "TV (mm^3) on Day 0", "setting": "[7]; 80 mg/kg group", "value": "86 mm^3 and 86 ± 6 mm^3"},
      {"measurement": "TV (mm^3) on Day 21", "setting": "[7]; 80 mg/kg orally once daily for 21 days", "value": "36 mm^3 and 36 ± 9 mm^3"},
      {"measurement": "TGI (tumor growth inhibition)", "setting": "[7]; 80 mg/kg orally once daily for 21 days, vs. vehicle control (P<0.001)", "value": 107, "unit": "%"},
      {"measurement": "Tolerability", "setting": "[7]; 20, 40, and 80 mg/kg orally once daily for 21 days in tumor-bearing mice", "value": "well tolerated"},
      {"measurement": "CLz", "setting": "[8]", "value": "21.2 ± 1.8", "unit": "L/h/kg"},
      {"measurement": "Vz", "setting": "[8]", "value": "52 ± 17", "unit": "L/kg"},
      {"measurement": "Cmax", "setting": "[8]; Balb/c, mouse, blood", "value": "1.38 ± 0.432", "unit": "µg/mL"},
      {"measurement": "half-life", "setting": "[8]; Balb/c, mouse, blood", "value": "1.7 ± 0.6", "unit": "h"},
      {"measurement": "AUC(0-t)", "setting": "[8]; Balb/c, mouse, blood, 0-24 h", "value": "3.6 ± 0.273", "unit": "µg·h/mL"}
    ]}
  ]
}
